Key:
MCF7 [1] = assay: cells; assay type: functional, cell-based; details: Homo sapiens
Description: Inhibition of 10e-4 uM estradiol induced estrogen receptor positive MCF-7 human breast cancer cell proliferation

MCF7 [2] = assay: cells; assay type: functional, cell-based; details: Homo sapiens; remark: listed apart in the source
Description: Anti-proliferative activity against estrogen-responsive human breast cancer cell line MCF-7 in the presence of ER at a 10e-4 uM concentration of estradiol

Estrogen receptor = Estrogen receptor (Homo sapiens, UniProt Q92731+P03372)
Description: Binding affinity for estrogen receptor, by competition with [3H]estradiol

MCF7 [3] = assay: Inhibition of estrogen receptor positive MCF-7 human breast cancer cell proliferation; assay type: functional, cell-based
WiDr [4] = assay: Inhibition of WiDr human cancer cell proliferation; assay type: functional, cell-based
HeLa [5] = assay: Inhibition of […]e-2 uM estradiol induced human cancer cell HeLa S3 proliferation; assay type: functional, cell-based
MDA-MB-453 [6] = assay: Inhibition of estrogen receptor negative MDA-MB-453 breast cancer cell proliferation; assay type: functional, cell-based; details: Homo sapiens
HeLa [7] = assay: cells; details: Homo sapiens
Description: Inhibition of 10e-2 uM estradiol induced human cancer cell HeLa S3 proliferation

WiDr [8] = assay: Inhibition of WiDr human cancer cell proliferation with 10e-2 uM estradiol; assay type: functional, cell-based
MDA-MB-453 [9] = assay: cells; details: Homo sapiens
Description: Inhibition of estrogen receptor negative MDA-MB-453 breast cancer cell proliferation with 10e-4 M estradiol

`CN(C)c1ccc(-c2cc(=O)c3ccc(N)cc3o2)cc1` showed an IC50 (MCF7 [1]) of 6.9 µM and an IC50 (MCF7 [2]) of 5 µM.

Compound `Nc1cccc2oc(-c3ccc(Br)cc3)cc(=O)c12` has an IC50 (Estrogen receptor) of over 100 µM, an IC50 (MCF7 [1]) of 9.5 µM and an IC50 (MCF7 [2]) of 1 µM.

With `Nc1cccc2oc(-c3ccc(O)cc3)cc(=O)c12` the IC50 (Estrogen receptor) was 18 µM, the IC50 (MCF7 [1]) was over 100 µM and the IC50 (MCF7 [2]) was 1.5 µM.

Work on `CCN(CC)c1ccc(-c2cc(=O)c3c(N)cccc3o2)cc1` yielded an IC50 (MCF7 [1]) of 0.01 µM and an IC50 (MCF7 [2]) of 0.002 µM.

`N#Cc1ccc(-c2cc(=O)c3c(N)cccc3o2)cc1` showed an IC50 (Estrogen receptor) of over 100 µM, an IC50 (MCF7 [1]) of 94 µM and an IC50 (MCF7 [2]) of over 100 µM.

For `CC(=O)Nc1ccc(-c2cc(=O)c3c(N)cccc3o2)cc1`, the IC50 (Estrogen receptor) was over 100 µM, the IC50 (MCF7 [1]) was 18 µM and the IC50 (MCF7 [2]) was 13 µM.

`CN(C)c1ccc(-c2cc(=O)c3c(N)cccc3o2)cc1` showed an IC50 (Estrogen receptor) of over 100 µM, an IC50 (MCF7 [1]) of 0.005 µM and an IC50 (MCF7 [2]) of 0.004 µM.

Work on `CN(C)c1cccc(-c2cc(=O)c3cc(N)ccc3o2)c1` yielded an IC50 (MCF7 [1]) of 13 µM and an IC50 (MCF7 [2]) of 13 µM.

`CCCCNc1ccc(-c2cc(=O)c3c(N)cccc3o2)cc1` showed an IC50 (Estrogen receptor) of over 100 µM, an IC50 (MCF7 [1]) of 0.0087 µM and an IC50 (MCF7 [2]) of 0.0051 µM.

`CN(C)c1ccc(-c2cc(=O)c3cc(N)ccc3o2)cc1` gave an IC50 (MCF7 [1]) of 0.035 µM and an IC50 (MCF7 [2]) of 0.013 µM.

In the case of `Nc1cccc(-c2cc(=O)c3c(N)cccc3o2)c1`, the IC50 (MCF7 [1]) is reported as over 100 µM and the IC50 (MCF7 [2]) is reported as 27 µM.

Work on `Nc1cccc2oc(-c3ccc(NCc4ccccc4)cc3)cc(=O)c12` yielded an IC50 (Estrogen receptor) of over 100 µM, an IC50 (MCF7 [1]) of 4.3 µM and an IC50 (MCF7 [2]) of 4.1 µM.

For `CCNc1ccc(-c2cc(=O)c3c(N)cccc3o2)cc1`, the IC50 (MCF7 [3]) was 0.092 µM, the IC50 (Estrogen receptor) was over 100 µM and the IC50 (MCF7 [1]) was 0.0017 µM. It also gave an IC50 (WiDr [4]) of over 10 µM, an IC50 (MCF7 [2]) of 0.0013 µM and an IC50 (HeLa [5]) of over 10 µM.

`COc1ccc(-c2cc(=O)c3c(N)cccc3o2)cc1` gave an IC50 (Estrogen receptor) of over 100 µM, an IC50 (MCF7 [1]) of over 100 µM and an IC50 (MCF7 [2]) of 12 µM.

`Nc1cccc2oc(-c3ccc(C(=O)O)cc3)cc(=O)c12` gave an IC50 (MCF7 [1]) of over 10 µM and an IC50 (MCF7 [2]) of over 10 µM.

Compound `CNc1ccc(-c2cc(=O)c3c(N)cccc3o2)cc1` has an IC50 (MCF7 [3]) of 0.076 µM, an IC50 (Estrogen receptor) of over 100 µM and an IC50 (MCF7 [1]) of 0.0054 µM. It also gave an IC50 (WiDr [4]) of over 10 µM, an IC50 (MCF7 [2]) of 0.0023 µM and an IC50 (HeLa [5]) of 6.3 µM.

With `CN(C)c1ccc(-c2cc(=O)c3cccc(N)c3o2)cc1` the IC50 (MCF7 [1]) was 2 µM and the IC50 (MCF7 [2]) was 0.021 µM.

`CCCCCCNc1ccc(-c2cc(=O)c3c(N)cccc3o2)cc1` showed an IC50 (MCF7 [1]) of 0.44 µM and an IC50 (MCF7 [2]) of 0.075 µM.

For `CCCNc1ccc(-c2cc(=O)c3c(N)cccc3o2)cc1`, the IC50 (Estrogen receptor) was over 100 µM, the IC50 (MCF7 [1]) was 0.0087 µM and the IC50 (MCF7 [2]) was 0.0067 µM.

For `Nc1cccc2oc(-c3ccccc3)cc(=O)c12`, the IC50 (Estrogen receptor) was over 100 µM, the IC50 (MCF7 [1]) was over 100 µM and the IC50 (MCF7 [2]) was 13 µM.

For `Nc1ccc(-c2cc(=O)c3c(N)cccc3o2)cc1`, the IC50 (MCF7 [3]) was 0.052 µM, the IC50 (Estrogen receptor) was over 100 µM and the IC50 (MCF7 [1]) was 0.0098 µM. It also gave an IC50 (WiDr [4]) of over 10 µM, an IC50 (MCF7 [2]) of 0.0072 µM and an IC50 (MDA-MB-453 [6]) of over 5 µM. It also gave an IC50 (HeLa [5]) of over 10 µM.

Compound `O=c1cc(-c2ccc(O)cc2)oc2cc(O)cc(O)c12` [APIGENIN] has an IC50 (MCF7 [1]) of 95 µM and an IC50 (MCF7 [2]) of over 100 µM.

`COc1cccc2c1C(=O)c1c(O)c3c(c(O)c1C2=O)C[C@@](O)(C(=O)CO)C[C@@H]3O[C@H]1C[C@H](N)[C@H](O)[C@H](C)O1` [DOXORUBICIN] gave an IC50 (HeLa [7]) of 0.03 µM and an IC50 (WiDr [8]) of 0.62 µM.

Compound `O=c1c(-c2ccc(O)cc2)coc2cc(O)cc(O)c12` [GENISTEIN] has an IC50 (MCF7 [1]) of 77 µM and an IC50 (MCF7 [2]) of 11 µM.

`CC/C(=C(\c1ccccc1)c1ccc(OCCN(C)C)cc1)c1ccccc1` [TAMOXIFEN] gave an IC50 (MDA-MB-453 [9]) of over 5 µM, an IC50 (MCF7 [1]) of 19 µM and an IC50 (MCF7 [2]) of 0.14 µM.

Reference: ChEMBL document CHEMBL1129621, “Novel 5-aminoflavone derivatives as specific antitumor agents in breast cancer” (J Med Chem, 1996)
